Here are results for eight compounds from patent publication US20090203708A1, “NOVEL SUBSTITUTED-1-H-QUINAZOLINE-2,4-DIONE DERIVATIVES, PREPARATION METHOD THEREOF AND PHARMACEUTICAL COMPOSITION CONTAINING THE SAME” (Korea Research Institute of Chemical Technology, priority 2006, published 2009).

Data set [1] concerns the target human serotonin 5-HT6 receptor (Homo sapiens, UniProt P50406). The data set can be described thus: [3H]LSD binding assay for cloned 5-HT6 receptors.
For the next data set, the target named is D3 (hD3 receptor) (Homo sapiens, UniProt P35462). Put plainly: Radioligand binding assay, dopamine D3.
Chain of D3 (hD3 receptor) (P35462 whole entry): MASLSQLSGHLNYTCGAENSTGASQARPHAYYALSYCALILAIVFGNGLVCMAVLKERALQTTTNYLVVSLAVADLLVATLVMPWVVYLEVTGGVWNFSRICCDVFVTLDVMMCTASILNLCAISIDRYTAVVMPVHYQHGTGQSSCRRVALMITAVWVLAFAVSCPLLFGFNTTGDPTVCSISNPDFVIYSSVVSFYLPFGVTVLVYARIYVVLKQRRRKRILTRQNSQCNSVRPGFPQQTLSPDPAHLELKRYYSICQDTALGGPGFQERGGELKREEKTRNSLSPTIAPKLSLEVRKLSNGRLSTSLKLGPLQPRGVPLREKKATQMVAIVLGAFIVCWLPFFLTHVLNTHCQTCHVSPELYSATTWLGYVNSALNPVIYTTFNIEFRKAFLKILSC
Another data set concerns the target D1 receptor (Homo sapiens, UniProt P21728). The data set can be described thus: Radioligand binding assay, dopamine D1.
For data set [2], the target named is 5-HT2a (human recombinant receptor, CHO-K1) (Homo sapiens, UniProt P28223). Put plainly: Radioligand binding assay, 5-HT2a.
Chain of 5-HT2a (human recombinant receptor, CHO-K1) (P28223 whole entry): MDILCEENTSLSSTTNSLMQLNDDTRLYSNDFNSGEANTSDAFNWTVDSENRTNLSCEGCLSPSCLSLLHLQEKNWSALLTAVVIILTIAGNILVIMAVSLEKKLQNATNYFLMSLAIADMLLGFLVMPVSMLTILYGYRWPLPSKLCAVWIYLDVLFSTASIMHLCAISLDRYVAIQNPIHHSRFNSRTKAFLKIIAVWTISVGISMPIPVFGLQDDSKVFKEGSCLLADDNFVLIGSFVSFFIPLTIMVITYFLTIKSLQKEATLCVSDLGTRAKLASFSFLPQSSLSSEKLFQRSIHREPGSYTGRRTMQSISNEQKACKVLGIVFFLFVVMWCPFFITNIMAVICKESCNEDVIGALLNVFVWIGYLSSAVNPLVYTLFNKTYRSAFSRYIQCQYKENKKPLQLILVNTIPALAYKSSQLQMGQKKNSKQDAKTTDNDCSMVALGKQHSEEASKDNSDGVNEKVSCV
For data set [3], the target named is 5-HT7 (human recombinant receptor, CHO-K1) (Homo sapiens, UniProt P34969). Put plainly: Radioligand binding assay, 5-HT7.
Chain of 5-HT7 (human recombinant receptor, CHO-K1) (P34969 whole entry): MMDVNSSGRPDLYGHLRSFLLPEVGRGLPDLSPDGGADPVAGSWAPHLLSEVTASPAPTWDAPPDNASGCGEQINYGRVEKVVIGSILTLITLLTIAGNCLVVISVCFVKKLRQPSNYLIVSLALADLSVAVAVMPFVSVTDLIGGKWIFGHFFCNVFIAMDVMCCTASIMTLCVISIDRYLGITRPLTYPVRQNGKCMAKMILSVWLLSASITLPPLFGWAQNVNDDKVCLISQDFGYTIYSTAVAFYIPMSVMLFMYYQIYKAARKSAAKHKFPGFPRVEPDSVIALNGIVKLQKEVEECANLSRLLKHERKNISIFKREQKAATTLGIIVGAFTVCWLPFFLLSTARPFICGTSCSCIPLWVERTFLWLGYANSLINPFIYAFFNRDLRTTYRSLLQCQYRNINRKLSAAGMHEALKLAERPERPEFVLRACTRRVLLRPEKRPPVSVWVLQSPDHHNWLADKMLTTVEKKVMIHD
A further data set addresses T1, D4 (hD4.2 receptor) (Homo sapiens, UniProt P21917, DEL265-296).
T1 construct: purchased BioSignal Packard Inc., Montreal, Canada
T1 sequence (P21917 with tags, fused parts or gaps DEL265-296): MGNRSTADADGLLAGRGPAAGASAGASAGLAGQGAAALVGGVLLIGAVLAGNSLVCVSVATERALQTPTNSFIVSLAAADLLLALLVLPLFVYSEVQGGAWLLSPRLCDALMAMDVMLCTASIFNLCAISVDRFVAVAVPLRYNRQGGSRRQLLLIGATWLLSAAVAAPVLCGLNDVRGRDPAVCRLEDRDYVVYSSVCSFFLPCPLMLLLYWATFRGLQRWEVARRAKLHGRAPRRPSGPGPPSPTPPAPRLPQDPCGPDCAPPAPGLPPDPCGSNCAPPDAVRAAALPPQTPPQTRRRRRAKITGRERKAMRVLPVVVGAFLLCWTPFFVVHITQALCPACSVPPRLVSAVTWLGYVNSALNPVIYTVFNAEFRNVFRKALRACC
The data set can be described thus: Radioligand binding assay, dopamine D4. The settings on record: [3H] YM-09151-2 0.06 nM; read-out: Binding affinity IC50 D4. The procedure, abridged: (§1)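 Competition binding used human receptor membranes: hD2L with 1 nM [3H]spiperone, and hD4.2 with 0.06 nM [3H]YM-09151-2 in Tris-HCl pH 7.4 with Mg/EDTA/K/Ca. Nonspecific binding was defined with 10 μM haloperidol for D2 and 10 μM clozapine for D4. IC50 was fitted by nonlinear regression from 7–8 concentrations in duplicate, across three assays.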

For the next data set, the system named is rotarod deficit. The data set can be described thus: Rotarod deficit in mice. The data set is classed as in vivo. The settings on record: for Rotarod Deficit TD50: mice, i.p. 30 min before testing; for rotarod dysfunction: mouse, in vivo, ip, 150 mg/kg, 120 min. The procedure: In order to examine the effects of the compounds of the present invention on the central nervous system and behavior, a rotarod test was performed as follows.
Mice were placed on a plastic rod having a node 1 inch in diameter (Ugo-Basile, Milano, Italy), followed by rotating the rod at a speed of 6 rpm. 30, 60, 90 and 120 min after the administration of test compounds, the mice that fell from the rotating rod within 1 min were counted to determine rotarod deficits (%) (Dunham et al., 1957).

Data set [4] has as its system apomorphine-induced PPI disruption. Put plainly: Apomorphine-induced PPI disruption in rat. The settings on record: for effect of compound alone on PPI versus vehicle control: rat, 2.5, 5, 10 and 20 mg/kg i.p. alone; for mean startle amplitude versus apomorphine positive control / effect of pretreatment on apomorphine-induced PPI disruption: rat; for mean startle amplitude versus apomorphine positive control: given 30 min before apomorphine; for effect of pretreatment on apomorphine-induced PPI disruption: i.p. 30 min before apomorphine (2 mg/kg, i.p.), 2.5, 5, 10 and 20 mg/kg.

Data set [5] has as its target T2, 5-HT2c (human recombinant receptor, CHO-K1) (Homo sapiens, UniProt P28335).
T2 sequence (P28335 33-458): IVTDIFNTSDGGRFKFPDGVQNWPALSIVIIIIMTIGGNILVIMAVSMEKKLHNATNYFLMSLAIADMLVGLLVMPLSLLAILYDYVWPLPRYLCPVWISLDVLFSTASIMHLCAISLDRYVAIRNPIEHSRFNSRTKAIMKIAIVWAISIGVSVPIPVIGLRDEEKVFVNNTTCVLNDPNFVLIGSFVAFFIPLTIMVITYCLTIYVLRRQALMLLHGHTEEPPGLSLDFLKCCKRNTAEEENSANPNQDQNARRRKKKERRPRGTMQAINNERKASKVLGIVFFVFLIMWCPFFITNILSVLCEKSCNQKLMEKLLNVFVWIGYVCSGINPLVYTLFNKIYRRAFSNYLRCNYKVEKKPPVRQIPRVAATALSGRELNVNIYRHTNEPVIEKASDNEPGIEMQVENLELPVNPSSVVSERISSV
Put plainly: Radioligand binding assay, 5-HT2c.

A further data set has as its target T3, D2 (hD2L receptor) (Homo sapiens, UniProt P14416).
T3 construct: purchased BioSignal Packard Inc., Montreal, Canada
Put plainly: Radioligand binding assay, dopamine D2. The settings on record: [3H] spiperone 1 nM; read-out: Binding affinity IC50 D2. The procedure, abridged: as §1

For data set [6], the target named is T4, HeLa cells transfected with human 5-HT6 receptor (Homo sapiens, UniProt P50406).
T4 construct: expressed in transfected cells; host or cells: HeLa
T4 sequence (P50406 whole entry): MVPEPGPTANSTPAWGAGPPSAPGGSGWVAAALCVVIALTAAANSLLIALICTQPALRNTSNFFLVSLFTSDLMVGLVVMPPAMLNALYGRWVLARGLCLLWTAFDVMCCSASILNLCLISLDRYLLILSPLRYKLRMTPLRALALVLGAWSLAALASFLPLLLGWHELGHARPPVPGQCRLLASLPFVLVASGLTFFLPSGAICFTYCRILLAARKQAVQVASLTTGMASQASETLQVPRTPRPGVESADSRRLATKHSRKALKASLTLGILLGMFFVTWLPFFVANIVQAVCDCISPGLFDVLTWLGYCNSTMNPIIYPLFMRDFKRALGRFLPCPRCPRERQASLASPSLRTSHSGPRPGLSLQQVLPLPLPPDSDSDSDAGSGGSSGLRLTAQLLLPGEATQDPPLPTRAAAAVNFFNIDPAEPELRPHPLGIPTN
The data set can be described thus: Serotonin-stimulated cAMP accumulation in HeLa cells (EIA). It is filed as cell-based. For orientation: cAMP levels reflect the balance of adenylyl cyclase and phosphodiesterase activity.

Another data set relates to lethality. The data set can be described thus: Lethality (LD50) in mice. It is filed as in vivo. The settings on record: i.p.
For data set [7], the target named is T5, 5-HT1a (human recombinant receptor, CHO-K1) (Homo sapiens, UniProt P08908).
T5 sequence (P08908 1-422): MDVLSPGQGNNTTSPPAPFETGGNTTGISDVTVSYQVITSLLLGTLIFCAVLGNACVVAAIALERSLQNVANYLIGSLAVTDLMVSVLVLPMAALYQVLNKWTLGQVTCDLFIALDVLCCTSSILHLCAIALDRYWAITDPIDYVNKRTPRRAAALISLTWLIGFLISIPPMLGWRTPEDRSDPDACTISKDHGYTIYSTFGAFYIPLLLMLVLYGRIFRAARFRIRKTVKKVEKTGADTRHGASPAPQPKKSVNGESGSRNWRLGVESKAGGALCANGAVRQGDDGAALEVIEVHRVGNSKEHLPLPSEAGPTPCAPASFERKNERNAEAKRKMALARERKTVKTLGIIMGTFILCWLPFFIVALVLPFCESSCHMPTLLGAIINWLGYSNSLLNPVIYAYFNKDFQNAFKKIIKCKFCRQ
The data set can be described thus: Radioligand binding assay, 5-HT1a.

A further data set deals with 5-HT6 receptors (Homo sapiens, UniProt P50406). The settings on record: human 5-HT6 receptors, literature; cited from earlier work.
Chain of 5-HT6 receptors (P50406 whole entry): as the sequence (P50406 whole entry) above
Data set [8] has as its system rat maximal electroseizure threshold. The settings on record: literature, cited from earlier work.
In another data set the test system is food intake. The settings on record: literature; cited from earlier work.
For data set [9], the system named is yawning, stretching, and chewing. The settings on record: rats, literature; cited from earlier work.
In data set [10] the test system is retention of a previously learned task. The settings on record: rats, literature; cited from earlier work.
Data set [11] relates to extracellular glutamate levels in the frontal cortex and dorsal hippocampus. The settings on record: literature; cited from earlier work.
The conditions of data set [12]: in vivo; cited from earlier work.

As a reminder, the IC50 is the concentration at which inhibition is half-maximal. A word on the inhibition: it is how much of the control response was suppressed. A word on the melting point: it is the temperature of the solid-liquid transition.

Chain of human serotonin 5-HT6 receptor (P50406 whole entry): as the sequence (P50406 whole entry) above
Chain of D1 receptor (P21728 whole entry): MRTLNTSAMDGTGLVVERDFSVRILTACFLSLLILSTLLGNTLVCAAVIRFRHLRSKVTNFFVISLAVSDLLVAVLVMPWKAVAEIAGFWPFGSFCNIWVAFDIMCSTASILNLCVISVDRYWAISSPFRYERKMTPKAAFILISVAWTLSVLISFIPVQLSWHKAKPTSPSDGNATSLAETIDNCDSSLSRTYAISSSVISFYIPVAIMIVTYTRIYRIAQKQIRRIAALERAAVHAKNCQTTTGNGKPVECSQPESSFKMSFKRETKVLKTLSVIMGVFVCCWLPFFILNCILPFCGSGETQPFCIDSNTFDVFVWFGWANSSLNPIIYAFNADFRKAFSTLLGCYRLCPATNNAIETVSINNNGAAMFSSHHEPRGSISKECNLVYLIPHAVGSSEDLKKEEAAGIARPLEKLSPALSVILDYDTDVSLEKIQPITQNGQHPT
T3 sequence (P14416 whole entry): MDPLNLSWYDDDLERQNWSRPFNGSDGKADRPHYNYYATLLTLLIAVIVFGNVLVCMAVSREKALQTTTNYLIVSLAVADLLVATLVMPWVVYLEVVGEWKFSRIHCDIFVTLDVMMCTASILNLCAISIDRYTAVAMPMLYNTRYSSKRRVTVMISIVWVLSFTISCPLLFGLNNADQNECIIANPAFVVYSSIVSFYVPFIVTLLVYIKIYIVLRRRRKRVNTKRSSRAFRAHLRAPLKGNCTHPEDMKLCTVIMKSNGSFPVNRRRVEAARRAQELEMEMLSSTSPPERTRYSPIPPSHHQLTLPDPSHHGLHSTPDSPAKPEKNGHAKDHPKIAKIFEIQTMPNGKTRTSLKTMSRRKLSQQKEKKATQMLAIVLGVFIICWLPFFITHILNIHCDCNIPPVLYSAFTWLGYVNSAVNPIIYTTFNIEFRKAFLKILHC

As to `C[C@H](c1ccccc1)n1c(=O)c2c(N3CCN(C)CC3)cc(Cl)cc2n(Cc2ccccc2)c1=O` [Example 40, 1-benzyl-7-chloro-5-(4-methyl-piperazin-1yl)-3-[(R)-1-phenyl-ethyl]-1H-quinazoline-2,4-dione], the IC50 was 0.0016 µM in data set [1]; 0.983 µM on D3 (hD3 receptor); 2.71 µM on D1 receptor; 0.266 µM in data set [2]; 7.42 µM in data set [3]; > 10 µM on D4 (hD4.2 receptor). Also, the IC50 in data set [5] was 0.477 µM; at D2 (hD2L receptor), > 10 µM; in [7], 4.35 µM. Also, in the data set on rotarod deficit, the “Rotarod Deficit TD50” value is recorded as 139 mg/kg, ip. This compound also showed a rotarod dysfunction in the data set on rotarod deficit of 75%. Also, the “effect of compound alone on PPI versus vehicle control” value in data set [4] was “no significant effects”. Moreover, the “mean startle amplitude versus apomorphine positive control” value in [4] was “did not induce significant difference in mean startle amplitude”. Also, the “effect of pretreatment on apomorphine-induced PPI disruption” value in data set [4] is “found to inhibit apomorphine (2 mg/kg, i.p.)-induced PPI disruption”. In addition, the cytotoxicity entry in [6] is on record as “did not show any cytotoxicity at all”. Moreover, the “effect on serotonin-stimulated cAMP accumulation (in words)” value in [6] (HeLa cells, FIG. 1) is given as “inhibited serotonin-stimulated cAMP accumulation in a dose-dependent manner”. The inhibition at 0.001 µM in data set [6] (HeLa, read-out: inhibition of cAMP increase induced by 0.3 μM serotonin, compound 0.001 μM) was determined as 0%. Also, the inhibition at 0.01 µM in [6] (HeLa, read-out: inhibition of cAMP increase induced by 0.3 μM serotonin, compound 0.01 μM) was found to be 35%. Further, the inhibition at 0.1 µM in data set [6] (HeLa, read-out: inhibition of cAMP increase induced by 0.3 μM serotonin, compound 0.1 μM) was determined as 95%. Also, in [6] (HeLa, read-out: inhibition of cAMP increase induced by 0.3 μM serotonin, compound 1 μM), the inhibition at 1 µM was 100%. Further, the inhibition at 10 µM in data set [6] (HeLa, read-out: inhibition of cAMP increase induced by 0.3 μM serotonin, compound 10 μM) turned out to be 100%. Also, in the data set on lethality, the “Lethal Degrees LD50” value is recorded as >300 mg/kg, ip.
The compound `O=c1c2c(N3CCNCC3)cc(Cl)cc2n(Cc2ccccc2)c(=O)n1Cc1ccccc1Br` [Example 60, 1-benzyl-3-(2-bromo-benzyl)-7-chloro-5-piperazin-1-yl-1H-quinazoline-2,4-dione] had a melting point of 94 to 97 °C. This compound also came in with an IC50 in [1] of 0.0039 µM. For the same compound, in data set [4], the “effect of compound alone on PPI versus vehicle control” value is “no significant effects”.
`C[C@H](c1ccccc1)n1c(=O)c2c(N3CCNCC3)cc(Cl)cc2n(Cc2ccccc2)c1=O` [Example 68, 1-benzyl-7-chloro-3-[(R)-1-phenyl-ethyl]-5-piperazin-1yl-1H-quinazoline-2,4-dione]: the IC50 in data set [1] is 0.0068 µM. For the same compound, in the data set on rotarod deficit, the “Rotarod Deficit TD50” value is reported as 122 mg/kg, ip and the rotarod dysfunction came to 100%. In data set [4], the “mean startle amplitude versus apomorphine positive control” value is “did not induce significant difference in mean startle amplitude” and the “effect of pretreatment on apomorphine-induced PPI disruption” value is on record as “found to inhibit apomorphine (2 mg/kg, i.p.)-induced PPI disruption”. The “Lethal Degrees LD50” value in the data set on lethality is reported as 152 mg/kg, ip.
For the compound `O=c1c2c(N3CCNCC3)cc(Cl)cc2n(Cc2ccccc2)c(=O)n1CCCc1ccccc1` [Example 71, 1-benzyl-7-chloro-3-(3-phenyl-propyl)-5-piperazin-1-yl-1H-quinazoline-2,4-dione], the melting point was in the range of 62 to 68 °C. The IC50 in data set [1] is 0.0018 µM. Further, at D3 (hD3 receptor), the IC50 came out at 1.2 µM. At D1 receptor, this compound registered an IC50 of 2.32 µM. Besides, the IC50 in data set [2] worked out at 0.733 µM. The concentration for half-maximal inhibition (IC50) in data set [3] came out at 3.05 µM. In addition, on D4 (hD4.2 receptor), the IC50 was > 10 µM. Moreover, in [5], the IC50 is 1.1 µM. Moreover, the IC50 on D2 (hD2L receptor) amounted to 2.72 µM. Besides, the IC50 in data set [7] worked out at 0.891 µM.
Regarding `COc1ccc2c(c1)c(CCN(C)C)cn2S(=O)(=O)c1ccccc1` [MS-245], on 5-HT6 receptors, the “pA2, antagonist” value is reported as 8.88.
Regarding `CNc1cc(NS(=O)(=O)c2ccc(N)cc2)nc(NC)n1` [Ro 04-6790], the anticonvulsant activity result in data set [8] is recorded as “possess anticonvulsant activity”. For the same compound, the “food intake by rats” value with food intake was “decreased food intake”. In data set [9], the “induction of yawning, stretching, and chewing behavior” value was “capable of inducing this same effect”.
`COc1ccc(NS(=O)(=O)c2sc3ccc(Cl)cc3c2C)cc1N1CCNCC1` [SB-271046, reference compound]: in [10], the “retention of a previously learned task in water maze” value is listed as “significant improvement in retention of a previously learned task”. Besides, the “extracellular glutamate levels in the frontal cortex and dorsal hippocampus” value in data set [11] is “increased extracellular glutamate levels in the frontal cortex and dorsal hippocampus by several times”. In [8], the anticonvulsant activity entry is listed as “possess anticonvulsant activity”. In addition, in the data set on rotarod deficit, the “Rotarod Deficit TD50” value is 112 mg/kg, ip.
Consider `COc1ccc(S(=O)(=O)Nc2cc(Br)cc(F)c2Br)cc1N1CCNCC1` [SB-357134], for which, in [12], the “bioavailability (in words)” value is “excellent oral bioavailability” and the “clearance (in words)” value is listed as “low clearance rate”. In addition, in [10], the “retention of a previously learned task in water maze” value is recorded as “significant improvement in retention of a previously learned task”. In addition, the “seizure threshold (rat maximal electroseizure threshold)” value in data set [8] (oral administration) was “potent and dose-dependent increase in seizure threshold”.
